Measurements as given in patent US8952024B2, “Herbicidal pyrimidone derivatives” (E I du Pont de Nemours and Company, priority 2009, dated 2015).

Legend:
Assay type in all cases: in vivo
[1] = tested on: windgrass (Apera spica-venti); assay: Test B postemergence plant response; details: Postemergence; for Windgrass plant response rating: 250 g ai/ha, scale 0 to 100
How it was run: (§1)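 Plants grown in peat/vermiculite medium were sprayed postemergence at 2–18 cm height (1- to 4-leaf stage). After 13–15 days in the greenhouse, response was rated visually against untreated controls on a 0–100 scale (0 no effect, 100 complete control).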

[2] = tested on: canarygrass (Phalaris minor); assay: Test B postemergence plant response; details: Postemergence; for Canarygrass plant response rating: 250 g ai/ha, scale 0 to 100
How it was run: as §1

[3] = tested on: chickweed (Stellaria media); assay: Test B postemergence plant response; details: Postemergence; for Chickweed plant response rating: 250 g ai/ha, scale 0 to 100
How it was run: as §1

[4] = tested on: winter barley (Hordeum vulgare); assay: Test B postemergence plant response; details: Postemergence; for Barley plant response rating: 250 g ai/ha, scale 0 to 100
How it was run: as §1

[5] = tested on: goosegrass (Eleusine indica); assay: Test B pre-/postemergence plant response; details: Preemergence, 62 g ai/ha; scale 0 to 100, 0 no effect, 100 complete control
[6] = tested on: bermudagrass (Cynodon dactylon); assay: Test B pre-/postemergence plant response
How it was run: (§2)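 Test compounds, formulated in a non-phytotoxic solvent mixture with surfactant, are applied to the soil surface (loam and sand blend) right after seeding, or sprayed over plants at the 1- to 4-leaf stage grown in peat moss/vermiculite medium. After 13 to 15 days under glasshouse conditions, each species is scored visually from 0 (no effect) to 100 (complete control) against controls.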

[7] = tested on: nightshade (eastern black nightshade, Solanum ptycanthum); assay: Test B pre-/postemergence plant response; details: Preemergence; for Nightshade plant response rating: 125 g ai/ha
How it was run: as §2

[8] = tested on: sunflower (common oilseed sunflower, Helianthus annuus); assay: Test B pre-/postemergence plant response; details: Preemergence; for Sunflower plant response rating: 125 g ai/ha
How it was run: as §2

[9] = tested on: galium (catchweed bedstraw, Galium aparine); assay: Test B pre-/postemergence plant response; details: Preemergence; for Galium plant response rating: 125 g ai/ha
How it was run: as §2

[10] = tested on: morningglory (Ipomoea coccinea); assay: Test B pre-/postemergence plant response
How it was run: as §2

[11] = tested on: umbrella sedge (Cyperus difformis); assay: Test B flooded paddy test; details: for Plant response rating, Flood, Sedge, Umbrella: 250 g ai/ha, flooded paddy test, visual rating on 0 to 100 scale (0 no effect, 100 complete control) after 13 to 15 days; for Plant response rating, Sedge, Umbrella: Flood (flooded paddy test), 13 to 15 days
How it was run: (§3)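 Seedlings reaching 2 leaves are flooded 3 cm deep; test material is delivered to that water, which stays at the same depth. Plants remain in a greenhouse 13–15 days and are then scored by eye versus controls from 0 to 100.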

[12] = tested on: ducksalad (Heteranthera limosa); assay: Test B flooded paddy test; details: for Plant response rating, Flood, Ducksalad: 250 g ai/ha, flooded paddy test, visual rating on 0 to 100 scale (0 no effect, 100 complete control) after 13 to 15 days; for Plant response rating, Ducksalad: Flood (flooded paddy test), 13 to 15 days
How it was run: as §3

[13] = tested on: rice (Oryza sativa); assay: Test B flooded paddy test; details: for Plant response rating, Flood, Rice: 250 g ai/ha, flooded paddy test, visual rating on 0 to 100 scale (0 no effect, 100 complete control) after 13 to 15 days; for Plant response rating, Rice: Flood (flooded paddy test), 13 to 15 days
How it was run: as §3

[14] = tested on: barnyardgrass (Echinochloa crus-galli); assay: Test B flooded paddy test; details: for Plant response rating, Flood, Barnyardgrass: 250 g ai/ha, flooded paddy test, visual rating on 0 to 100 scale (0 no effect, 100 complete control) after 13 to 15 days; for Plant response rating, Barnyardgrass: Flood (flooded paddy test), 13 to 15 days
How it was run: as §3

[15] = 31 g ai/ha, scale 0 to 100 (0 no effect, 100 complete control)
[16] = 62 g ai/ha, scale 0 (no effect) to 100 (complete control), 13 to 15 days
[17] = 125 g ai/ha, visual rating after 13 to 15 days, scale 0 (no effect) to 100 (complete control)
[18] = 125 g ai/ha, scale 0 to 100 (0 no effect, 100 complete control), 13 to 15 days
[19] = 250 g ai/ha, Preemergence, 0 to 100 scale
[20] = Postemergence, 31 g ai/ha, scale 0 to 100 (0 no effect, 100 complete control)
[21] = Postemergence, 62 g ai/ha, scale 0 (no effect) to 100 (complete control), 13 to 15 days
[22] = Postemergence, 125 g ai/ha, scale 0 to 100 (0 no effect, 100 complete control), 13 to 15 days
[23] = Postemergence, 250 g ai/ha, scale 0 to 100
[24] = Preemergence, 31 g ai/ha, scale 0 to 100 (0 no effect, 100 complete control)
[25] = Preemergence, 62 g ai/ha, scale 0 to 100, 0 no effect, 100 complete control
[26] = Preemergence, 125 g ai/ha, 0 to 100 scale
[27] = 62 g ai/ha, scale 0 to 100, 0 no effect, 100 complete control
[28] = Postemergence, 125 g ai/ha, visual rating after 13 to 15 days, scale 0 (no effect) to 100 (complete control)
[29] = 31 g ai/ha, scale of 0 to 100 where 0 is no effect and 100 is complete control
[30] = 62 g ai/ha, scale 0 to 100, 0 is no effect, 100 is complete control
[31] = 125 g ai/ha, scale 0 to 100, 0 is no effect, 100 is complete control

## 5-[(2-hydroxy-6-oxo-1-cyclohexen-1-yl)carbonyl]-3-phenyl-2-(3-pyridinyl)-4(3H)-pyrimidone [Compound 113]
[1]; [15]
  Plant response rating, Windgrass: 5
[1]; [16]
  Plant response rating, Windgrass: 5
[1]; [17]
  Plant response rating, Windgrass: 5
[1]
  Windgrass plant response rating: 5
[2]; [15]
  Plant response rating, Canarygrass: 0
[2]; [16]
  Plant response rating, Canarygrass: 0
[2]; [17]
  Plant response rating, Canarygrass: 0
[2]
  Canarygrass plant response rating: 0
[3]; [15]
  Plant response rating, Chickweed: 60
[3]; [16]
  Plant response rating, Chickweed: 80
[3]; [17]
  Plant response rating, Chickweed: 90
[3]
  Chickweed plant response rating: 100
[4]; [15]
  Plant response rating, Barley: 0
[4]; [16]
  Plant response rating, Barley: 0
[4]; [18]
  Plant response rating, Barley: 0
[4]
  Barley plant response rating: 0
[5]
  Plant response rating, Goosegrass: 25
[6]; [19]
  Plant response rating, Bermudagrass: 98
[6]; [20]
  Plant response rating, Bermudagrass: 35
[6]; [21]
  Plant response rating, Bermudagrass: 45
[6]; [22]
  Plant response rating, Bermudagrass: 65
[6]; [23]
  Bermudagrass plant response rating: 70
[6]; [24]
  Plant response rating, Bermudagrass: 0
[6]; [25]
  Plant response rating, Bermudagrass: 0
[6]; [26]
  Bermudagrass plant response rating: 85
[7]; 250 g ai/ha, 0 to 100 scale
  Plant response rating, Nightshade: 100
[7]; [15]
  Plant response rating, Nightshade: 80
[7]; [27]
  Plant response rating, Nightshade: 90
[7]; 0 to 100 scale
  Nightshade plant response rating: 95
[8]; 250 g ai/ha, 0 to 100 scale
  Plant response rating, Sunflower: 25
[8]; [15]
  Plant response rating, Sunflower: 0
[8]; [27]
  Plant response rating, Sunflower: 0
[8]; 0 to 100 scale
  Sunflower plant response rating: 0
[9]; 250 g ai/ha, 0 to 100 scale
  Plant response rating, Galium: 0
[9]; [15]
  Plant response rating, Galium: 0
[9]; [27]
  Plant response rating, Galium: 0
[9]; 0 to 100 scale
  Galium plant response rating: 0
[10]; [19]
  Plant response rating, Morningglory: 20
[10]; [20]
  Plant response rating, Morningglory: 15
[10]; [21]
  Plant response rating, Morningglory: 15
[10]; [28]
  Plant response rating, Morningglory: 15
[10]; [23]
  Morningglory plant response rating: 20
[10]; [25]
  Plant response rating, Morningglory: 0
[10]; [26]
  Morningglory plant response rating: 0
[11]
  Plant response rating, Flood, Sedge, Umbrella: 0
[11]; [29]
  Plant response rating, Sedge, Umbrella: 0
[11]; [30]
  Plant response rating, Sedge, Umbrella: 0
[11]; [31]
  Plant response rating, Sedge, Umbrella: 0
[12]
  Plant response rating, Flood, Ducksalad: 0
[12]; [29]
  Plant response rating, Ducksalad: 0
[12]; [30]
  Plant response rating, Ducksalad: 0
[12]; [31]
  Plant response rating, Ducksalad: 0
[13]
  Plant response rating, Flood, Rice: 0
[13]; [29]
  Plant response rating, Rice: 0
[13]; [30]
  Plant response rating, Rice: 0
[13]; [31]
  Plant response rating, Rice: 0
[14]
  Plant response rating, Flood, Barnyardgrass: 0
[14]; [29]
  Plant response rating, Barnyardgrass: 0
[14]; [30]
  Plant response rating, Barnyardgrass: 0
[14]; [31]
  Plant response rating, Barnyardgrass: 0

## O=C1CCCC([O-])=C1C(=O)c1cnc(-c2ccccc2)n(-c2ccccc2)c1=O.[K+] [Compound 14]
[1]; [15]
  Plant response rating, Windgrass: 5
[1]; [16]
  Plant response rating, Windgrass: 30
[1]; [17]
  Plant response rating, Windgrass: 30
[1]
  Windgrass plant response rating: 50
[2]; [15]
  Plant response rating, Canarygrass: 10
[2]; [16]
  Plant response rating, Canarygrass: 20
[2]; [17]
  Plant response rating, Canarygrass: 20
[2]
  Canarygrass plant response rating: 50
[3]; [17]
  Plant response rating, Chickweed: 80
[3]
  Chickweed plant response rating: 80
[4]; [15]
  Plant response rating, Barley: 0
[4]; [16]
  Plant response rating, Barley: 0
[4]; [18]
  Plant response rating, Barley: 5
[4]
  Barley plant response rating: 40
[5]
  Plant response rating, Goosegrass: 85
[6]; [19]
  Plant response rating, Bermudagrass: 100
[6]; [20]
  Plant response rating, Bermudagrass: 70
[6]; [21]
  Plant response rating, Bermudagrass: 70
[6]; [22]
  Plant response rating, Bermudagrass: 80
[6]; [23]
  Bermudagrass plant response rating: 80
[6]; [24]
  Plant response rating, Bermudagrass: 70
[6]; [25]
  Plant response rating, Bermudagrass: 75
[6]; [26]
  Bermudagrass plant response rating: 100
[7]; 250 g ai/ha, 0 to 100 scale
  Plant response rating, Nightshade: 100
[7]; [15]
  Plant response rating, Nightshade: 85
[7]; [27]
  Plant response rating, Nightshade: 98
[7]; 0 to 100 scale
  Nightshade plant response rating: 100
[8]; 250 g ai/ha, 0 to 100 scale
  Plant response rating, Sunflower: 98
[8]; [15]
  Plant response rating, Sunflower: 50
[8]; [27]
  Plant response rating, Sunflower: 85
[8]; 0 to 100 scale
  Sunflower plant response rating: 85
[9]; 250 g ai/ha, 0 to 100 scale
  Plant response rating, Galium: 80
[9]; [15]
  Plant response rating, Galium: 0
[9]; [27]
  Plant response rating, Galium: 0
[9]; 0 to 100 scale
  Galium plant response rating: 40
[10]; [19]
  Plant response rating, Morningglory: 100
[10]; [20]
  Plant response rating, Morningglory: 70
[10]; [21]
  Plant response rating, Morningglory: 70
[10]; [28]
  Plant response rating, Morningglory: 80
[10]; [23]
  Morningglory plant response rating: 95
[10]; [24]
  Plant response rating, Morningglory: 100
[10]; [25]
  Plant response rating, Morningglory: 100
[10]; [26]
  Morningglory plant response rating: 100
[11]
  Plant response rating, Flood, Sedge, Umbrella: 40
[11]; [29]
  Plant response rating, Sedge, Umbrella: 0
[11]; [30]
  Plant response rating, Sedge, Umbrella: 0
[11]; [31]
  Plant response rating, Sedge, Umbrella: 0
[12]
  Plant response rating, Flood, Ducksalad: 40
[12]; [29]
  Plant response rating, Ducksalad: 0
[12]; [30]
  Plant response rating, Ducksalad: 20
[12]; [31]
  Plant response rating, Ducksalad: 30
[13]
  Plant response rating, Flood, Rice: 0
[13]; [29]
  Plant response rating, Rice: 0
[13]; [30]
  Plant response rating, Rice: 0
[13]; [31]
  Plant response rating, Rice: 0
[14]
  Plant response rating, Flood, Barnyardgrass: 0
[14]; [29]
  Plant response rating, Barnyardgrass: 0
[14]; [30]
  Plant response rating, Barnyardgrass: 0
[14]; [31]
  Plant response rating, Barnyardgrass: 0
